Assay results: patent publication US8343996B2, “Azaquinolinone derivatives and uses thereof” (AstraZeneca AB, priority 2008, dated 2013)
Where “and” joins values, the source holds several entries; their conditions need not be identical. Identical values can stand only once.

system: farnesyl transferase (FTase); test: Cytosolic Ras assay for measurement of farnesyl transferase activity (RAS Cell Assay); assay type: cell-based, African green monkey; details: COS-7 cells, 24 hr treatment in 0.2% DMSO; cytosolic Ras by Western blot, Ras/actin ratio
Description: Ras is a small GTP binding protein whose farnesylation and consequent membrane association can be reduced by inhibition of farnesyl transferase (Appels et al., Oncologist 10:565-578, 2005; Basso et al., J. Lipid Res. 47:15-31, 2006; Tamanoi, Trends Biochem. Sci. 18:349-353, 1993; each of which is incorporated herein by reference). […] Treatment with a compound of the invention reduces the farnesylation and membrane association of Ras, leading to accumulation of Ras in the cytosol of the cells. An assay was developed to monitor FTase activity, based on the amount of Ras present in the cytosolic fraction of COS-7 cells after FTI treatment. On day 0, COS-7 cells were passaged into 6-well plates at a density of 4×10^5 cells/well. Beginning on day 1, cells were treated with a compound of the invention in 0.2% DMSO for 24 hr. On day 2, cells were lysed by passage through a 25 gauge needle 10 times in 100 μl Buffer 1 (50 mM Tris, 140 mM NaCl, 2 mM EDTA, protease inhibitor cocktail, pH 7.4) and lysates were centrifuged at 16,000 g for 30 min to isolate the cytosolic fraction (supernatant). The cytosolic fraction was analyzed by Western blot using anti-Ras antibody and anti-actin antibody for loading control. Results were quantified based on densitometric analysis of Ras signal normalized to actin signal (Ras/actin ratio). Treatment with a compound of the invention increases the amount of Ras in the cytosolic fraction in a dose-dependent manner. Using this method, compounds of the invention were analyzed for their ability to inhibit FTase activity, in that an increase in the Ras/actin ratio indicates inhibition of FTase.

Row | SMILES | IC50
1 | COc1cccc(-c2cc(=O)n(C)c3ncc([C@@](N)(c4ccc(Cl)cc4)c4cncn4C)cc23)c1 [Compound 5b, 6-(amino(4-chlorophenyl)(1-methyl-1H-imidazol-5-yl)methyl)-4-(3-methoxyphenyl)-1-methyl-1,8-naphthyridin-2(1H)-one] | 300 nM
2 | C#Cc1cccc(-c2cc(=O)n(C)c3ncc([C@@](O)(c4ccc(Cl)cc4)c4cncn4C)cc23)c1 [Compound 4a] | 300 nM
3 | COc1cccc(-c2cc(=O)n(C)c3ncc([C@](N)(c4ccc(Cl)cc4)c4cncn4C)cc23)c1 [Compound 5a, 6-(amino(4-chlorophenyl)(1-methyl-1H-imidazol-5-yl)methyl)-4-(3-methoxyphenyl)-1-methyl-1,8-naphthyridin-2(1H)-one] | 3.9 nM and 2 nM
4 | C#Cc1cccc(-c2cc(=O)n(C)c3ncc([C@](O)(c4ccc(Cl)cc4)c4cncn4C)cc23)c1 [Compound 4b] | 0.57 nM and 0.54 nM

Results, then the compound that gave them:

Row | IC50 | SMILES
5 | 190 nM | COc1cccc(-c2cc(=O)n(C)c3ncc([C@@](O)(c4ccc(Cl)cc4)c4cncn4C)cc23)c1 [Compound 6b, 6-((4-chlorophenyl)(hydroxy)(1-methyl-1H-imidazol-5-yl)methyl)-4-(3-methoxyphenyl)-1-methyl-1,8-naphthyridin-2(1H)-one]
6 | 2.3 nM and 4.2 nM | COc1cccc(-c2cc(=O)n(C)c3ncc([C@](O)(c4ccc(Cl)cc4)c4cncn4C)cc23)c1 [Compound 6a, 6-((4-chlorophenyl)(hydroxy)(1-methyl-1H-imidazol-5-yl)methyl)-4-(3-methoxyphenyl)-1-methyl-1,8-naphthyridin-2(1H)-one]
